From patent US20090209568A1, “Spiro [Benzopyran] or Spiro [Benzofuran] Derivatives Which Inhibit the Sigma Receptor” (priority 2006, published 2009)

What was measured:
σ1-receptor = molecular target: T1, σ1-receptor (Cavia porcellus, UniProt Q60492); test: Sigma-1 receptor radioligand binding, [3H](+)pentazocine (Version A / Version B); set-up: species or system guinea pig; conditions: guinea pig brain membranes; for inhibition at 0.1 µM: compound 10^−7 M; for inhibition at 0.01 µM: compound 10^−8 M
T1 construct: guinea pig brains were homogenized in 10 vols; (w/v) of Tris-HCl 50 mM 0.32 M sucrose; from tissue; host or cells: guinea pig brain membranes
Procedure: Brain membrane preparation and binding assays for the σ1-receptor were performed as described (DeHaven-Hudkins et al., 1992) with some modifications. In brief, guinea pig brains were homogenized in 10 vols. (w/v) of Tris-HCl 50 mM 0.32 M sucrose, pH 7.4, with a Kinematica Polytron PT 3000 at 15000 r.p.m. for 30 s. The homogenate was centrifuged at 1000 g for 10 min at 4° C. and the supernatants collected and centrifuged again at 48000 g for 15 min at 4° C. The pellet was resuspended in 10 volumes of Tris-HCl buffer (50 mM, pH 7.4), incubated at 37° C. for 30 min, and centrifuged at 48000 g for 20 min at 4° C. Following this, the pellet was resuspended in fresh Tris-HCl buffer (50 mM, pH 7.4) and stored on ice until use.
Each assay tube contained 10 μL of [^3H](+)pentazocine (final concentration of 0.5 nM), 900 μL of the tissue suspension to a final assay volume of 1 mL and a final tissue concentration of approximately 30 mg tissue net weight/mL. Non-specific binding was defined by addition of a final concentration of 1 μM haloperidol. All tubes were incubated at 37° C. for 150 min before termination of the reaction by rapid filtration over Schleicher & Schuell GF 3362 glass fibre filters [previously soaked in a solution of 0.5% polyethylenimine for at least 1 h]. Filters were then washed with four times with 4 mL of cold Tris-HCl buffer (50 mM, pH 7.4). Following addition of scintillation cocktail, the samples were allowed to equilibrate overnight. The amount of bound radioactivity was determined by liquid scintillation spectrometry using a Wallac Winspectral 1414 liquid scintillation counter. Protein concentrations were determined by the method of Lowry et al. (1951).
In brief the σ1-receptor preparation was prepared from guinea pig brain. The brains were homogenized in 5 to 6 times of volume sucrose solution (0.32M) and homogenized. The homogenate was centrifuged at 2900 rpm, 4° C., 10 min). the supernatant was centrifuged again (23500×g, 4° C., 20 min). The pellet was resuspended in Tris-buffer, incubated for 30 min at room temperature and centrifuged f (23500×g, 4° C., 20 min). The pellet was resuspended in cold TRIS-buffer and homogenized. Then the protein content was measured (approx. 1.5 mg/mL) and the homogenate frozen at −80° C. for later use.
The radioligand used was [^3H]-(+)-Pentazocin in TRIS-buffer. In a volume of 200 μL 50 μL TRIS-buffer, 50 μL compound solution of varying concentration, 50 μL radioligand-solution (8 nM; resulting in 2 nM in the assay) and finally 50 μL of receptor preparation (approx. 1.5 mg/mL) were given into a well of a microplate equipped with a filter. The plate was closed and stirred for 2.5 h at 37° C. and 500 rpm. Following that the solvents were removed by a harvester through the filter. After rinsing with H2O the filter was measured in a scintillation counter ([^3H]-protocol).

[1] = system: capsaicin-induced mechanical allodynia; test: Effect on capsaicin in development of mechanical allodynia (von Frey filaments); type: in vivo; conditions: 16 mg/kg i.p., mice, 1 μg capsaicin into paw, von Frey mechanical stimulus
Procedure: This model uses the von-Frey Filaments and is a model to test the effects or symptoms of neuropathic pain, allodynia etc. […] The test protocol for all tests with von Frey filaments: After habituation mice were first treated with the test-compound (or solvent in controls). Then 1 μg capsaicin (1% DMSO) is injected into their paw resulting in developing pain in the effected paw. The effected paw is then treated with a mechanical stimulus and the latency time before the paw is withdrawn is measured.

T1 sequence (Q60492 whole entry): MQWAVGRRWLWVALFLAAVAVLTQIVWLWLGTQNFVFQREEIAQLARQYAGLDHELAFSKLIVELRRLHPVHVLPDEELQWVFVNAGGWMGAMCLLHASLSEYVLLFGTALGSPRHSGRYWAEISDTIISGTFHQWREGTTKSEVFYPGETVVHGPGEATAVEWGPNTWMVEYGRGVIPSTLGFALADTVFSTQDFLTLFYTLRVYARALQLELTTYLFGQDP

| Compound | inhibition at 0.1 µM (σ1-receptor) [%] | inhibition at 0.01 µM (σ1-receptor) [%] | % of pain relief [1] [%] |
| --- | --- | --- | --- |
| CCCCN1CCC2(C1)OC(OC)Cc1ccccc12 (mixture of isomers) [Example 22, cis/trans-1′-Butyl-3-methoxy-3,4-dihydrospiro[[2]benzopyran-1,3′-pyrrolidin]] | 52 | 29 | 45.67±9.62 |
| COC1OC2(CCN(Cc3ccccc3)C2)c2ccccc21 (mixture of isomers) [Example 25, cis/trans-1′-Benzyl-3-methoxy-3H-spiro[[2]benzofuran-1,3′-pyrrolidin]] | 88 | 22.2 | 44.28±9.49 |
